“Also recorded” adds a separate entry of the source.
What was measured:
[1] = target: Gαs(R201C) (Homo sapiens, UniProt P63092, R201C); assay: Cysteine modification by acrylamidine; type: binding; conditions: R201C mutant
From the text: (§1) The R201C mutation results in the loss of ammonium η1 and η2 of R201 thus freeing E50 to interact with R258 and R265 to indirectly stabilize switch II in an active-like conformation. Based on this finding, replacing the side chain of R201C with a close mimic of native arginine which contains N(η1) and N(η2) may correct the misactivation of the R201C mutant. […] This modification converts cysteine to an arginine mimic (FIG. 3A).

[2] = target: T1, Gαs(R201C/C237S) (Homo sapiens, UniProt P63092, C237S/R201C); assay: Cysteine modification by acrylamidine; type: binding; conditions: R201C/C237S double mutant
T1 sequence (P63092 7-380 isoform P63092-2 R187C/C223S limits assumed): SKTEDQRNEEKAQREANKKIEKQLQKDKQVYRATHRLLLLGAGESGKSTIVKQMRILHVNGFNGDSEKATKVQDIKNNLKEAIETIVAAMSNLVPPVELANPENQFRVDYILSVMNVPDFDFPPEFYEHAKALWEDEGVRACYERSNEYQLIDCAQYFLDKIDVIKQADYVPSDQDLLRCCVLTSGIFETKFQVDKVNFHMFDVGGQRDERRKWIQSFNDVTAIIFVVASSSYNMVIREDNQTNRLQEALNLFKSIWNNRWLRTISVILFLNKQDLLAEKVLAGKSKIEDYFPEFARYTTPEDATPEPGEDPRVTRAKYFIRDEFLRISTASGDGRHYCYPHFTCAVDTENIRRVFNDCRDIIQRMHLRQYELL
From the text: as §1

[3] = target: GDP-bound Gαs(R201C/C237S) (Homo sapiens, UniProt P63092, C237S/R201C); assay: Adenylyl cyclase-activating activity of Acr-modified Gαs; type: biochemical; conditions: in the presence of GDP and Gβ1/Gγ2(C68S), free Acr removed by gel filtration
Chain of GDP-bound Gαs(R201C/C237S) (P63092 7-380 isoform P63092-2 R187C/C223S limits assumed): as above
Description: (§2) FIGS. 3A-3C show modification of C201 by acrylamide. […] The data represents the mean SE of three independent measurements. […] The data represents the mean±SD of at least three independent measurements.
(§3) Also effect of modifying C201 with Acr on the adenylyl cyclase-activating activity of GDP-bound Gαs(R201C/C237S) was calculated. […] The kcat of Gαs(C237S) is 1.539±0.153 min^−1 (measured at 0° C.), slightly higher than that of WT Gαs (FIG. 3C). […] Following Acr modification of the R201C/C237S mutant its kcat increased to 0.471±0.043 min^−1 (measured at 0° C.), about 30% of that of Gαs(C237S).

[4] = target: T1, Gαs(R201C/C237S); assay: Single turnover GTPase activity of Acr-modified Gαs; type: biochemical
Description: as §2, §3

Chain of Gαs(R201C) (P63092 7-380 isoform P63092-2 R187C limits assumed): as the sequence (P63092 7-380 isoform P63092-2 R187C/C223S limits assumed) above, with S217C counted along it

cysteines modified by Acr [1]: can modify Cys237 and Cys201
cysteines modified by Acr [2]: only Cys201 can be modified
kcat after Acr modification relative to that of Gαs(C237S) ([4]; measured at 0° C.): about 30%
kcat of R201C/C237S mutant following Acr modification ([4]; measured at 0° C.): 0.00785 ± 0.000717 s⁻¹
Structure (SMILES): C=CC(=N)N [Acr, acrylamidine]
ability of Acr-modified Gαs(R201C/C237S) to activate adenylyl cyclase [3]: lowered to the same level as that of Gαs(C237S); also recorded: decreased
single turnover GTPase activity of the R201C/C237S mutant after modification of C201 by Acr ([4]; FIG. 3C legend): increased the single turnover GTPase activity of the R201C/C237S mutant to a level close to that of the C237S mutant

Reference: patent US20240336563A1, “G-ALPHA-S INHIBITORS AND USES THEREOF” (The Regents of the University of California, priority 2021, published 2024)
